Holding throughout (set-up): species or system guinea pig (female Sprague-Dawley)
In assay [1] the target is T1, A2 receptor of the coronary artery (Cavia porcellus, UniProt P46616).
T1 construct: perfused hearts from female Sprague-Dawley guinea pigs in an isolated Langendorff heart preparation; from tissue; host or cells: isolated perfused guinea pig heart (Langendorff), coronary vasculature
Description: Coronary flow increase in isolated perfused heart (Langendorff preparation). The protocol: (§1) Assays of the cardiovascular potency of the above compounds at the A1 receptors of the SA node and at the A2 receptor of the coronary artery employed perfused hearts from female Sprague-Dawley guinea pigs in an isolated Langendorff heart preparation. An assay consists of an infusion of a spectophotometrically standardized solution of test compound directly into the aortic cannula at rates increasing stepwise every 5 minutes. Collection of the total cardiac effluent during the first half of each infusion period provides a measure of coronary flow (A2 effect). The concentration of test compound required to produce a half-maximal increase in coronary flow is determined. Registration of the ECG assesses the effect of the test compound on SA node (stimulus to Q interval, A1 effect). The concentration of test compound required to produce a half-maximal prolongation of stimulus to Q interval is determined. […] The ratio of A1 and A2 effects of test compounds are calculated to provide the selectivity ratio.

Assay [2] concerns the target T2, A1 receptors of the SA node (Cavia porcellus, UniProt P47745).
T2 construct: perfused hearts from female Sprague-Dawley guinea pigs in an isolated Langendorff heart preparation; from tissue; host or cells: isolated perfused guinea pig heart (Langendorff), nodal tissue
T2 sequence (P47745 1-326): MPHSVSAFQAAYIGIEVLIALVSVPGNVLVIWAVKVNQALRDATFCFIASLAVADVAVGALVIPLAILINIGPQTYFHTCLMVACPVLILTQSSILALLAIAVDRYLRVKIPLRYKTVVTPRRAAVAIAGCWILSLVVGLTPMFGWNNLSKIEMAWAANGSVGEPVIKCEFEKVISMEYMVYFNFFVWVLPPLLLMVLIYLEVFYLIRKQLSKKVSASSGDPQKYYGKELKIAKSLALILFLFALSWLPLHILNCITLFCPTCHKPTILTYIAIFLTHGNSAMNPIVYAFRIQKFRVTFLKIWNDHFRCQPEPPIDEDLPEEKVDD
Description: SQ (stimulus to Q interval) prolongation in isolated perfused heart (Langendorff preparation). As to conditions: isolated perfused guinea pig heart; concentration for half-maximal prolongation of stimulus to Q interval; read-out: SQ Prolongation (A1) ED50. Here is the method:
as §1

Assay [3] has as its system A2 receptor of the coronary artery. Description: Coronary flow increase in isolated perfused heart (Langendorff preparation). As to conditions: ratio of A1 (SQ prolongation) and A2 (coronary flow) effects. The protocol: as §1
Setting [4] is: isolated perfused guinea pig heart, concentration for half-maximal increase in coronary flow, stepwise infusion every 5 minutes, read-out: Coronary Blood Flow Increase (A2) EC50.

pEC50: −log10 of the molar value. Like-named read-outs stand apart in the source and are kept apart here.

T1 sequence (P46616 whole entry, the tested form may be a part): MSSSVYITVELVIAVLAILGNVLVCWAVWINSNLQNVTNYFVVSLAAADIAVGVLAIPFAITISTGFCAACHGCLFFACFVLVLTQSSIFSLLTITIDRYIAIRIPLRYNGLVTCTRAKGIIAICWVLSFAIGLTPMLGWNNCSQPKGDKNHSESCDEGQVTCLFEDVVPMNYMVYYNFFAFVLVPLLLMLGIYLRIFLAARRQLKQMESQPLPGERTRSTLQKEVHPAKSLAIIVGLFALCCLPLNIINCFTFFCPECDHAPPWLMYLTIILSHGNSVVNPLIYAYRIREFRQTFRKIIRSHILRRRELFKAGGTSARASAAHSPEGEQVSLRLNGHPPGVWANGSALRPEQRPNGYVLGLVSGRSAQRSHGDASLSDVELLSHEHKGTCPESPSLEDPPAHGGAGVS

As for `Nc1nc(OCCCc2ccccc2)nc2c1ncn2[C@@H]1O[C@H](CO)[C@@H](O)[C@H]1O` [Example 1, 2-(3-phenyl-1-propoxy)adenosine], the pEC50 in assay [1] (setting [4]) is 7.21.

As to `Nc1nc(OCCc2ccc(F)cc2)nc2c1ncn2[C@@H]1O[C@H](CO)[C@@H](O)[C@H]1O` [Example 2, 2-[2-(4-fluorophenyl)ethoxy]adenosine], the pEC50 in assay [1] (setting [4]) is 9.05.

Take `Nc1nc(OC2CCCC2)nc2c1ncn2[C@@H]1O[C@H](CO)[C@@H](O)[C@H]1O` [Example 3, 2-Cyclopentyloxyadenosine]: the pEC50 was 7.04 in assay [1] (setting [4]) and 4.10 in assay [2].

Consider `Nc1nc(OC2CCCCC2)nc2c1ncn2[C@@H]1O[C@H](CO)[C@@H](O)[C@H]1O` [Example 4, 2-Cyclohexyloxyadenosine], for which the values for the pEC50 in assay [1] (setting [4]) and in assay [2] were 6.18 and 4.00, respectively.

As for `Nc1nc(OCCC2CCCCC2)nc2c1ncn2[C@@H]1O[C@H](CO)[C@@H](O)[C@H]1O` [Example 5, 2-(2-Cyclohexylethoxy)adenosine], the pEC50 in assay [2] is 5.06.

On to `Nc1nc(OCc2ccccc2)nc2c1ncn2[C@@H]1O[C@H](CO)[C@@H](O)[C@H]1O` [Example 6, 2-benzyloxyadenosine], for which the “Selectivity (A1/A2)” value in assay [3] amounted to 15. Besides, in assay [1] (setting [4]), the pEC50 was 6.38.

As for `Nc1nc(OCCc2ccccc2)nc2c1ncn2[C@@H]1O[C@H](CO)[C@@H](O)[C@H]1O` [Example 7, 2-(2-phenylethoxy)adenosine], the pEC50 in assay [1] (setting [4]) was 8.55.

On to `COc1ccccc1CCOc1nc(N)c2ncn([C@@H]3O[C@H](CO)[C@@H](O)[C@H]3O)c2n1` [Example 8, 2-[2-(2-methoxyphenyl)ethoxy]adenosine], for which, in assay [1] (setting [4]), the pEC50 was 7.49.

As to `COc1cccc(CCOc2nc(N)c3ncn([C@@H]4O[C@H](CO)[C@@H](O)[C@H]4O)c3n2)c1` [Example 9, 2-[2-(3-methoxyphenyl)ethoxy]adenosine], the pEC50 in assay [1] (setting [4]) was 8.59.

Regarding `COc1ccc(CCOc2nc(N)c3ncn([C@@H]4O[C@H](CO)[C@@H](O)[C@H]4O)c3n2)cc1` [Example 10, 2-[2-(4-methoxyphenyl)ethoxy]adenosine], the pEC50 in assay [1] (setting [4]) was 8.85.

For `Cc1ccccc1CCOc1nc(N)c2ncn([C@@H]3O[C@H](CO)[C@@H](O)[C@H]3O)c2n1` [Example 11, 2-[2-(2-methylphenyl)ethoxy]adenosine], the pEC50 in assay [1] (setting [4]) is 8.42.

As to `COc1cc(CCOc2nc(N)c3ncn([C@@H]4O[C@H](CO)[C@@H](O)[C@H]4O)c3n2)cc(OC)c1OC` [Example 12, 2-[2-(3,4,5-trimethoxyphenyl)ethoxy]adenosine], the pEC50 in assay [1] (setting [4]) is 7.66.

In assay [1], `Nc1nc(OCCc2cccs2)nc2c1ncn2[C@@H]1O[C@H](CO)[C@@H](O)[C@H]1O` [Example 13, 2-[2-(2-thienyl)ethoxy]adenosine] gave a pEC50 of 8.43.

Consider `Nc1nc(OCCc2ccsc2)nc2c1ncn2[C@@H]1O[C@H](CO)[C@@H](O)[C@H]1O` [Example 14, 2-[2-(3-thienyl)ethoxy]adenosine], for which the pEC50 in assay [2] is 4.73.

Turning to `CC(COc1nc(N)c2ncn([C@@H]3O[C@H](CO)[C@@H](O)[C@H]3O)c2n1)c1ccccc1` (stereo partly drawn) [Example 17, 2-(2-phenyl-1-propoxy)adenosine], the results for the pEC50 in assay [1] (setting [4]) and in assay [2] were 8.05 and 4.28, respectively.

Consider `CC[C@@H](COc1nc(N)c2ncn([C@@H]3O[C@H](CO)[C@@H](O)[C@H]3O)c2n1)c1ccccc1` [Example 18], for which, in assay [3], the “Selectivity (A1/A2)” value is recorded as 50.

For `CC[C@H](COc1nc(N)c2ncn([C@@H]3O[C@H](CO)[C@@H](O)[C@H]3O)c2n1)c1ccccc1` [Example 19, 2-[(2S)-phenyl-1-butoxy]adenosine], the values for the pEC50 in assay [1] (setting [4]) and in assay [2] were 7.50 and 4.56, respectively.

Regarding `Nc1nc(OCCCCc2ccccc2)nc2c1ncn2[C@@H]1O[C@H](CO)[C@@H](O)[C@H]1O` [Example 20, 2-(4-phenyl-1-butoxy)adenosine], the pEC50 in assay [1] is 8.00; in assay [2], 5.13.

As for `CCNC(=O)[C@H]1O[C@@H](n2cnc3c(N)nc(OCCc4ccccc4)nc32)[C@H](O)[C@@H]1O` [Example 22, 2-(2-phenyl)ethoxy-5'-N-ethylcarboxamidoadenosine], the values for the pEC50 in assay [1] (setting [4]) and in assay [2] were 8.89 and 4.83, respectively.

In the case of `Nc1nc(OCCCC2CCCCC2)nc2c1ncn2[C@@H]1O[C@H](CO)[C@@H](O)[C@H]1O` [Example 23, 2-(3-cyclohexyl)propoxyadenosine], the pEC50 in assay [2] is 5.43.

For the origin of these results see patent publication US5140015A, “2-aralkoxy and 2-alkoxy adenosine derivatives as coronary vasodilators and antihypertensive agents” (Whitby Research, Inc., priority 1990, dated 1992).
